From patent US4471131A, “Novel silyl esters of N-phosphonomethylglycine” (Monsanto Company, priority 1983, dated 1984)

Experiments:
Assay in all cases: post-emergence herbicidal activity, greenhouse
Format in all cases: in vivo
Barnyardgrass = tested on: Barnyardgrass
Excerpt: (§1) A good grade of top soil is placed in aluminum pans having holes in the bottom and compacted to a depth of 0.95 to 1.27 cm. from the top of the pan. A predetermined number of seeds of each of several dicotyledonous and moncotyledonous annual plant species and/or vegetative propagules for the perennial plant species were placed on the soil and pressed into the soil surface. The seeds and/or vegetative propagules are covered with soil and leveled. The pans are then placed on a sand bench in the greenhouse and watered from below as needed. After the plants reach the desired age (two to three weeks), each pan, except for the control pans, is removed individually to a spraying chamber and sprayed by means of an atomizer at the rates noted. In the spray solution is an amount of an emulsifying agent mixture to give a spray solution or suspension which contains about 0.4% by weight of the emulsifier. The spray solution or suspension contains a sufficient amount of the candidate chemical in order to give application rates corresponding to those set forth in the tables. The pans were returned to the greenhouse and watered as before and the injury to the plants as compared to the control is observed at approximately two and four weeks and the results recorded. In the tables, WAT means "weeks after treatment."
(§2) The post-emergent herbicidal activity index used in Tables II and III is as follows:
(§3) The plant species utilized in these tests are identified by letter in accordance with the following legend: […]

Canada Thistle = details: Table II, 11.2 kg/h, formulated immediately prior to treatment
Excerpt: as §1, §2, §3

Cocklebur = tested on: Cocklebur
Excerpt: as §1, §2, §3

Common Lambsquarters = tested on: Common Lambsquarters
Excerpt: as §1, §2, §3

Downy Brome = tested on: Downy Brome
Excerpt: as §1, §2, §3

Hemp Sesbania = details: Table III, 2 WAT
Excerpt: as §1, §2, §3

Johnsongrass = details: Table II, 11.2 kg/h, formulated immediately prior to treatment
Excerpt: as §1, §2, §3

Large Crabgrass = details: Table III, 2 WAT
Excerpt: as §1, §2, §3

Morningglory = tested on: Morningglory
Excerpt: as §1, §2, §3

Panicum Spp = details: Table III, 2 WAT
Excerpt: as §1, §2, §3

Pennsylvania Smartweed = tested on: Pennsylvania Smartweed
Excerpt: as §1, §2, §3

Quackgrass = details: Table II, 11.2 kg/h, formulated immediately prior to treatment
Excerpt: as §1, §2, §3

Rice = details: Table III, 2 WAT
Excerpt: as §1, §2, §3

Soybean = details: Table III, 2 WAT
Excerpt: as §1, §2, §3

Sugar Beet = details: Table III, 2 WAT
Excerpt: as §1, §2, §3

Velvetleaf = tested on: Velvetleaf
Excerpt: as §1, §2, §3

Wild Buckwheat = details: Table III, 2 WAT
Excerpt: as §1, §2, §3

Yellow Nutsedge = details: Table II, 11.2 kg/h, formulated immediately prior to treatment
Excerpt: as §1, §2, §3

[1] = Table II, 2 WAT, 11.2 kg/h, formulated immediately prior to treatment
[2] = Table II, 4 WAT, 11.2 kg/h, formulated immediately prior to treatment

CC(C)OC(=O)CNCP(=O)(O[Si](c1ccccc1)(c1ccccc1)C(C)(C)C)O[Si](c1ccccc1)(c1ccccc1)C(C)(C)C [Ex. 1]
Plant Response Index (K) (Barnyardgrass; [1]): 2 (50-74% inhibition) | Plant Response Index (K) (Barnyardgrass; [2]): 3 (75-99% inhibition) | Plant Response Index (K) (Barnyardgrass; Table III, 2 WAT, 1.1 kg/h): 1 (25-49% inhibition) | Plant Response Index (K) (Barnyardgrass; Table III, 2 WAT, 5.6 kg/h): 4 (100% inhibition) | Plant Response Index (A) (Canada Thistle; 2 WAT): 0 (0-24% inhibition) | Plant Response Index (A) (Canada Thistle; 4 WAT): 1 (25-49% inhibition) | Plant Response Index (B) (Cocklebur; [1]): 1 (25-49% inhibition) | Plant Response Index (B) (Cocklebur; [2]): 1 (25-49% inhibition) | Plant Response Index (B) (Cocklebur; Table III, 2 WAT, 1.1 kg/h): 0 (0-24% inhibition) | Plant Response Index (B) (Cocklebur; Table III, 2 WAT, 5.6 kg/h): 2 (50-74% inhibition) | Plant Response Index (E) (Common Lambsquarters; [1]): 0 (0-24% inhibition) | Plant Response Index (E) (Common Lambsquarters; [2]): 0 (0-24% inhibition) | Plant Response Index (E) (Common Lambsquarters; Table III, 2 WAT, 1.1 kg/h): 0 (0-24% inhibition) | Plant Response Index (E) (Common Lambsquarters; Table III, 2 WAT, 5.6 kg/h): 3 (75-99% inhibition) | Plant Response Index (J) (Downy Brome; [1]): 1 (25-49% inhibition) | Plant Response Index (J) (Downy Brome; [2]): 1 (25-49% inhibition) | Plant Response Index (J) (Downy Brome; Table III, 2 WAT, 1.1 kg/h): 0 (0-24% inhibition) | Plant Response Index (J) (Downy Brome; Table III, 2 WAT, 5.6 kg/h): 3 (75-99% inhibition) | Plant Response Index (R) (Hemp Sesbania; 1.1 kg/h): 0 (0-24% inhibition) | Plant Response Index (R) (Hemp Sesbania; 5.6 kg/h): 2 (50-74% inhibition) | Plant Response Index (I) (Johnsongrass; 2 WAT): 0 (0-24% inhibition) | Plant Response Index (I) (Johnsongrass; 4 WAT): 2 (50-74% inhibition) | Plant Response Index (T) (Large Crabgrass; 1.1 kg/h): 2 (50-74% inhibition) | Plant Response Index (T) (Large Crabgrass; 5.6 kg/h): 4 (100% inhibition) | Plant Response Index (D) (Morningglory; [1]): 1 (25-49% inhibition) | Plant Response Index (D) (Morningglory; [2]): 2 (50-74% inhibition) | Plant Response Index (D) (Morningglory; Table III, 2 WAT, 1.1 kg/h): 0 (0-24% inhibition) | Plant Response Index (D) (Morningglory; Table III, 2 WAT, 5.6 kg/h): 2 (50-74% inhibition) | Plant Response Index (S) (Panicum Spp; 1.1 kg/h): 0 (0-24% inhibition) | Plant Response Index (S) (Panicum Spp; 5.6 kg/h): 3 (75-99% inhibition) | Plant Response Index (F) (Pennsylvania Smartweed; [1]): 3 (75-99% inhibition) | Plant Response Index (F) (Pennsylvania Smartweed; [2]): 3 (75-99% inhibition) | Plant Response Index (F) (Pennsylvania Smartweed; Table III, 2 WAT, 1.1 kg/h): 0 (0-24% inhibition) | Plant Response Index (F) (Pennsylvania Smartweed; Table III, 2 WAT, 5.6 kg/h): 3 (75-99% inhibition) | Plant Response Index (H) (Quackgrass; 2 WAT): 0 (0-24% inhibition) | Plant Response Index (H) (Quackgrass; 4 WAT): 1 (25-49% inhibition) | Plant Response Index (O) (Rice; 1.1 kg/h): 0 (0-24% inhibition) | Plant Response Index (O) (Rice; 5.6 kg/h): 3 (75-99% inhibition) | Plant Response Index (L) (Soybean; 1.1 kg/h): 0 (0-24% inhibition) | Plant Response Index (L) (Soybean; 5.6 kg/h): 1 (25-49% inhibition) | Plant Response Index (M) (Sugar Beet; 1.1 kg/h): 1 (25-49% inhibition) | Plant Response Index (M) (Sugar Beet; 5.6 kg/h): 3 (75-99% inhibition) | Plant Response Index (C) (Velvetleaf; [1]): 0 (0-24% inhibition) | Plant Response Index (C) (Velvetleaf; [2]): 1 (25-49% inhibition) | Plant Response Index (C) (Velvetleaf; Table III, 2 WAT, 1.1 kg/h): 0 (0-24% inhibition) | Plant Response Index (C) (Velvetleaf; Table III, 2 WAT, 5.6 kg/h): 2 (50-74% inhibition) | Plant Response Index (Q) (Wild Buckwheat; 1.1 kg/h): 0 (0-24% inhibition) | Plant Response Index (Q) (Wild Buckwheat; 5.6 kg/h): 3 (75-99% inhibition) | Plant Response Index (G) (Yellow Nutsedge; 2 WAT): 1 (25-49% inhibition) | Plant Response Index (G) (Yellow Nutsedge; 4 WAT): 2 (50-74% inhibition)
